We go through nine compounds from patent publication US20220220100A1 (SOLUTIA CANADA INC., priority 2019, published 2022).

A short description of the data set: Photostationary state (PSS) and lambda max under simulated sunlight (solar simulator). It is filed as physicochemical. Particulars: for PSS (Steady State): head of Table 3; for PSS (Steady State) / PSS (SS): absorbance at photostationary state, 2×10^−5 M solution; for λmax (nm): peak in the visible range, ring-closed (dark) state; for PSS (SS): simulated sunlight (solar simulator). The text has this: The term “photostationary state” (PSS) refers to an equilibrium state of a compound or material where the rate of the ring closing (forward) reaction is equal to the rate of the ring-opening reaction, when irradiated with light in a given region of the spectrum. In other words, the ratio of the ring-open isomer to the ring-closed isomer is at an equilibrium. PSS may be expressed with reference to a light source, or with reference to a type of light, for example, QUV, Xenon-arc lamp, Q-SUN, natural or filtered sunlight, UV, VIS, IR, NIR, full spectrum or the like, or with reference to a particular wavelength or range of wavelengths, or in the presence or absence of a filter. Some ring-open and ring-closed isomers may undergo isomerization from one to the other in response to different wavelengths of light. If a wavelength of light is used where only one of the isomers absorbs, irradiation results in complete isomerization to the other form. 254 nm, 313 nm or 365 nm light are commonly used in studies of UV-absorbing isomers, but this may not be representative of the PSS under other light conditions that include the visible spectrum such as natural or simulated sunlight (“full spectrum” light) and/or with filters that block a portion of the UV component of the light. For example, in a ring-closed (dark) state, the magnitude of the maximum absorbance in the visible range may change with the light source (FIG. 1). The wavelength at this peak in the visible range may be referred to as lambda max, or λmax. […] When full spectrum light from a solar simulator (Xenon arc lamp) is used as a light source (line B), a balance is achieved between the ring-closed (dark) state induced by the UV component, and a ring-open (faded) state induced by the visible component of the light. Inclusion of a UV blocking layer in the light path (line A) may reduce the UV component of the light, and the ring-opening reaction induced by the visible light component becomes more prominent. […] Where desired, the ratio of ring-open and ring-closed isomers at a PSS may be quantified by ^1H NMR spectroscopy, such as described in U.S. Pat. No. 7,777,055. In various embodiments, compounds with an increased absorbance at a photostationary state (PSS), or increased contrast ratio, are an improvement over other diarylethene compounds. A compound with a greater absorbance in the visible range can be used in lesser quantities in a formulation or material to achieve a desired contrast ratio, whereas a compound with a lower absorbance at a PSS may need a higher concentration to achieve a desired contrast ratio.
Photostationary State (PSS)
UV/Vis spectra were obtained using an OceanOptics™ Spectrophotometer. A 2×10^−5 M solution of compound in solvent was prepared, and photofaded using visible light until absorption in the visible region of the spectrum stabilized. The sample was then irradiated with simulated sunlight (QSUN SS-150 Solar Simulator with xenon arc lamp) until the absorption spectrum stabilized. To obtain PSS in the presence of a UV blocking film, a second sample was prepared and irradiated as described, with a UV blocking film inserted in the light path when irradiating.

SMILES strings stand for the structures.

As to `COc1ccc2c(C3=C(c4cc(-c5ccc(C(C)(C)C)s5)sc4-c4ccc(C(C)(C)C)s4)C(F)(F)C(F)(F)C3(F)F)c(-c3ccc(C(C)(C)C)cc3)oc2c1`, the “PSS (Steady State)” value was 0.255 and the “λmax (nm)” value is 575 nm.
For `COc1cc2oc(-c3ccc(C(C)(C)C)cc3)c(C3=C(c4cc(-c5cc6c(s5)C(C)(C)CCC6(C)C)sc4-c4cc5c(s4)C(C)(C)CCC5(C)C)C(F)(F)C(F)(F)C3(F)F)c2cc1OC`, the “PSS (SS)” value is on record as 0.358 and the “λmax (nm)” value was 594 nm.
On the same counts, the results for `COCCCOc1cc2oc(-c3ccc(C(C)(C)C)cc3)c(C3=C(c4cc(-c5cc(C(C)(C)C)cs5)sc4-c4cc(C(C)(C)C)cs4)C(F)(F)C(F)(F)C3(F)F)c2cc1OCCCOC` are 0.319 and 594 nm.
The like results for `CC(C)(C)c1ccc(-c2oc3cc(OCCN4C(=O)CCC4=O)c(OCCN4C(=O)CCC4=O)cc3c2C2=C(c3cc(-c4cc(C(C)(C)C)cs4)sc3-c3cc(C(C)(C)C)cs3)C(F)(F)C(F)(F)C2(F)F)cc1` were, in that order, 0.364 and 585 nm.
Regarding `COc1cc2oc(-c3ccc(C(C)(C)C)cc3)c(C3=C(c4cc(-c5ccc(C(C)(C)C)s5)sc4-c4ccc(C(C)(C)C)s4)C(F)(F)C(F)(F)C3(F)F)c2cc1OC` [Chromophore S340, 2-(4-(tert-butyl)phenyl)-3-(2-(5,5″-di-tert-butyl-[2,2′:5′,2″-terthiophen]-3′-yl)-3,3,4,4,5,5-hexafluorocyclopent-1-en-1-yl)-5,6-dimethoxybenzofuran], the “PSS (Steady State)” value is given as 0.417 and the “λmax (nm)” value is listed as 591 nm.
The like results for `CC(C)(C)c1ccc(-c2oc3ccccc3c2C2=C(c3cc(-c4ccc(C(C)(C)C)s4)sc3-c3ccc(C(C)(C)C)s3)C(F)(F)C(F)(F)C2(F)F)cc1` [Chromophore S343, 2-(4-(tert-butyl)phenyl)-3-(2-(5,5″-di-tert-butyl-[2,2′:5′,2″-terthiophen]-3′-yl)-3,3,4,4,5,5-hexafluorocyclopent-1-en-1-yl)benzofuran] were, in that order, 0.315 and 573 nm.
On the same counts, the results for `COc1ccc2oc(-c3ccc(C(C)(C)C)cc3)c(C3=C(c4cc(-c5ccc(C(C)(C)C)s5)sc4-c4ccc(C(C)(C)C)s4)C(F)(F)C(F)(F)C3(F)F)c2c1` [Chromophore S344, 2-(4-(tert-butyl)phenyl)-3-(2-(5,5″-di-tert-butyl-[2,2′:5′,2″-terthiophen]-3′-yl)-3,3,4,4,5,5-hexafluorocyclopent-1-en-1-yl)-5-methoxybenzofuran] are 0.337 and 583 nm.
On the same counts, the results for `COCCOc1cc2oc(-c3ccc(C(C)(C)C)cc3)c(C3=C(c4cc(-c5ccc(C(C)(C)C)s5)sc4-c4ccc(C(C)(C)C)s4)C(F)(F)C(F)(F)C3(F)F)c2cc1OCCOC` [Chromophore S364, 2-(4-(tert-butyl)phenyl)-3-(2-(5,5″-di-tert-butyl-[2,2′:5′,2″-terthiophen]-3′-yl)-3,3,4,4,5,5-hexafluorocyclopent-1-en-1-yl)-5,6-bis(2-methoxyethoxy)benzofuran] are 0.427 and 593 nm.
`CC(=O)Oc1cc2oc(-c3ccc(C(C)(C)C)cc3)c(C3=C(c4cc(-c5ccc(C(C)(C)C)s5)sc4-c4ccc(C(C)(C)C)s4)C(F)(F)C(F)(F)C3(F)F)c2cc1OC(C)=O` [Chromophore S367, 2-(4-(tert-butyl)phenyl)-3-(2-(5,5″-di-tert-butyl-[2,2′:5′,2″-terthiophen]-3′-yl)-3,3,4,4,5,5-hexafluorocyclopent-1-en-1-yl)benzofuran-5,6-diyl diacetate]: the “PSS (Steady State)” value is listed as 0.32 and the “λmax (nm)” value is recorded as 583 nm.
